# Assay results from patent US8617563B2, “Antichlamydial agents” (Duke University, priority 2011, dated 2013).
# Key:
# [1] = target: T1, CPAF (Chlamydia trachomatis serovar D, UniProt O84866); parameters: endogenous in cells; host or cells: HeLa cells infected with C. trachomatis LGV-L2 434/Bu (the bacteria make the protein and secrete it into the host cytosol); details: C. trachomatis LGV-L2 434-infected HeLa cells; Kumar et al. 2008; cited from earlier work
# Target sequence in this assay (O84866 276-601): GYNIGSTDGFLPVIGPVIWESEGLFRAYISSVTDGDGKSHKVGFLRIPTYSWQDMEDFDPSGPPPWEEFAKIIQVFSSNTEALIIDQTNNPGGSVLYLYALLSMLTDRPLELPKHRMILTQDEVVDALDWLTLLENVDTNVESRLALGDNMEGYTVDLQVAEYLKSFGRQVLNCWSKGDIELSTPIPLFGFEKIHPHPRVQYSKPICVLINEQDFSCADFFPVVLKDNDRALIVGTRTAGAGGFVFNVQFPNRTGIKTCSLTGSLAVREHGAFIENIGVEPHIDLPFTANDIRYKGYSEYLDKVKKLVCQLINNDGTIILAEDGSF
# Target sequence in this assay (O84866 24-234): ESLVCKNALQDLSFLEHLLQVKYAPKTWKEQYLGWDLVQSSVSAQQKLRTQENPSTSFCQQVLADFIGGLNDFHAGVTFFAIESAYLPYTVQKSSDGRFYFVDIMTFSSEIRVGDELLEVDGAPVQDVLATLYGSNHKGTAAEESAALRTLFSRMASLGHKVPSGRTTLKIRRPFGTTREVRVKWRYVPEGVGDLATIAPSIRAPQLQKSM
# [2] = target: T1, CPAF; type: biochemical, C. trachomatis; parameters: 6xHis; made in house; host or cells: E. coli (pET30b); details: GST-tagged chlamydial substrates, 37° C., 20 min
# Procedure: FIG. 4 depicts (A) Recombinant Chlamydia ORFs were tested for sensitivity to host and bacterial derived proteases. […] Purified his-tagged CPAF was incubated with GST-tagged chlamydial substrates at 37° C. for 20 min with increasing amounts of lactacystin. Cleavage products were run on an SDS PAGE gel and visualized with Coomassie blue staining. (C) Schematic summary of CPAF targets. […] Membranes from Chlamydia-infected HeLa cells were harvested and purified at 0, 24, 36 and 48 hours post-infection, and the abundance of the chlamydial proteins Ct005, IncC and IncD were monitored with specific antibodies. Na/K ATPase and IncG served as host and bacterial-loading controls, respectively.
# (§1) Cytosols from Chlamydia-infected HeLa cells (40 hrs) or recombinant his-tagged CPAF were pre-treated with rabbit polyclonal anti-CPAF or anti-IncA antisera, and incubated with GST-tagged Chlamydia proteins for 20 min at 37° C. […] Three example proteins shown include a type-III secretion (T3S) core component (CdsQ) a T3S chaperone (Mcsc) and a T3S needle component (Ct584). Processing of recombinant proteins in A-B were monitored by immunoblot analysis with specific antibodies. (C) Protease inhibitor profile of recombinant CPAF. Example shown for the chlamydial substrate GST-IncC. Degradation products were visualized by SDS-PAGE followed by staining with Coomassie blue. […]
# Uninfected and HeLa cells pre-infected with L2 for 30 hrs were treated with inhibitory peptides and infected with EBs for 10 min Tarp translocation was indirectly visualized with an anti-phosphotyrosine antibody (A) and quantified by counting 50 separate cells (B). The stability of newly translocated Tarp was assessed by infecting cells as in (A) but with S^35-labeled EBs, followed by sequential immunoprecipitation of Tarp and MOMP and Phosphoimager analysis of precipitated material (C (I-IV)). […] IC50 values were determined by assessing CPAF cleavage of an Abz-tagged CPAF substrate (SEQ ID NO:9) by HPLC. […] Extracellular bacteria were determined. […] The number of internalized EBs was quantified per cell (H). […]
# Target sequence in this assay (O84866 1-234, added parts left off): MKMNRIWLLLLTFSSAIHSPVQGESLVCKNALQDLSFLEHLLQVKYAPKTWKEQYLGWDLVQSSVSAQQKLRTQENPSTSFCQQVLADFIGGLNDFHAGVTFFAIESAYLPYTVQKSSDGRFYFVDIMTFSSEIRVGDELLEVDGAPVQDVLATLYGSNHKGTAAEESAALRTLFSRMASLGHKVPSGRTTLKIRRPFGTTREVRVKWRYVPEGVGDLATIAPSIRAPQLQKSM
# Target sequence in this assay (O84866 276-601): as the sequence (O84866 276-601) above
# [3] = target: T1, CPAF; type: biochemical, C. trachomatis; parameters: endogenous in cells; host or cells: HeLa cells infected with C. trachomatis LGV-L2 434/Bu (the bacteria make the protein and secrete it into the host cytosol); details: cytosol pre-treated with inhibitor or antibody
# Procedure: as §1, with “FIG. 5 depicts (A) that Polyclonal anti-CPAF antisera blocks proteolysis of chlamydial substrates. Cytosols” for “Cytosols”, “GST-IncC.” for “GST-IncC. Degradation products were visualized by SDS-PAGE followed by staining with Coomassie blue.”
# Target sequence in this assay (O84866 276-601): as above
# Target sequence in this assay (O84866 24-234): as the sequence (O84866 24-234) above
# Recombinant CPAF was generated using pET30b (Huang et al., Cell Host & Microbe, 4:529-542 (2008). For in vitro cleavage assays, Chlamydia ORFs were expressed in either yeast or E. coli. Crude recombinant proteins were incubated for 30 minutes with cytosol from uninfected or LGV-L2 infected (40 h) HeLa cells, and processing was assessed by SDS-PAGE and immunoblotting using standard techniques. Approximately 8% of the expressed chlamydial proteins were sensitive to degradation after incubation with cytosol derived from infected cells (FIG. 3A). Processing ranged from the generation of distinct cleavage fragments to complete degradation (FIG. 3B). […]
# [4] = target: T1, CPAF; assay: HPLC-based CPAF inhibition assay with Abz-tagged model substrate (SEQ ID NO:9); type: biochemical, C. trachomatis; parameters: 6xHis; made in house; host or cells: E. coli BL21 (DE3), plasmid pET30b-CPAF; details: CPAF 62.5 nM, substrate SEQ ID NO:9 0.5 mM, inhibitor 0-240 μM
# Procedure: FIG. 1 depicts the results of HPLC-based CPAF inhibition assays using a model CPAF substrate (SEQ ID NO:9) to compare inhibition of CPAF protease activity by SEQ ID NO:7, SEQ ID NO:2, and lactacystin. HPLC-based assays were performed in a final volume of 100 μL containing assay buffer, CPAF (62.5 nM), substrate 1 (0.5 mM), and varying concentrations of inhibitor (0-240 μM).
# HPLC-based assays comprised an Abz-tagged model CPAF substrate (SEQ ID NO:9) and were performed in a final volume of 100 μL containing 150 mM NaCl, 50 mM Tris pH 7.50, purified CPAF (62.5 nM), fluorescent-tagged model CPAF substrate (0.5 mM), and varying concentrations of each candidate compound (0-240 μM). IC50 values were determined by pre-incubating CPAF with varying concentrations of candidate compound for 5 min at room temperature prior to initiation of the reaction via the addition of model CPAF substrate. Reactions were allowed to proceed for 90 seconds at 25° C., followed by removal of 80 μL aliquots and quenching by the addition of 1.2 M HCl (40 μL). Data were converted to percent activity relative to a control reaction without candidate compound and fit to the following equation using GraFit v6.0, where [I] is the concentration of candidate compound and s is a slope factor: […]
# Target sequence in this assay (O84866 276-601): as the sequence (O84866 276-601) above
# Target sequence in this assay (O84866 1-234, added parts left off): as the sequence (O84866 1-234, added parts left off) above
structure (smiles),measurement,setting,value
CC(=O)N[C@@H](CSC(=O)[C@]1([C@@H](O)C(C)C)NC(=O)[C@H](C)[C@@H]1O)C(=O)O [lactacystin],Vimentin state in infected HeLa cells treated with lactacystin,[1],fiber oligomerization of vimentin
same,Inhibition of proteolysis by recombinant CPAF,[2],inhibited
same,Protection of chlamydial proteins from degradation by cytosols of Chlamydia-infected cells,[3],protected from degradation
same,IC50,[4],10.2 ± 2.3 µM
